Results as given in publication PMC12274840 (The Journal of Biological Chemistry, 2025).
Like-named read-outs stand apart in the source and are kept apart here.

Key:
[1] = tested on: E. coli KA797 cells carrying BlaC position 105 library; type: cell-based, Escherichia coli; settings: for Fi AVG (average fitness): average of replicates
[2] = tested on: E. coli KA797 cells carrying pUK21 with CTX-M-14 WT (Tat); assay: microbe, parasite or virus in culture; type: cell-based; settings: in combination with 100 μg/ml carbenicillin
[3] = tested on: E. coli KA797 cells carrying pUK21 with NmcA (pelB/Sec); assay: microbe, parasite or virus in culture; type: cell-based; settings: in combination with 25 μg/ml carbenicillin
[4] = tested on: E. coli KA797 cells carrying pUK21 with BlaC WT (Tat); assay: microbe, parasite or virus in culture; type: cell-based; settings: in combination with 100 μg/ml carbenicillin
[5] = tested on: E. coli KA797 cells carrying pUK21 with TEM-1 WT (Sec); assay: microbe, parasite or virus in culture; type: cell-based; settings: in combination with 100 μg/ml carbenicillin

CC1(C)[C@H](C(=O)O)N2C(=O)C[C@H]2S1(=O)=O [sulbactam]
Fi AVG (average fitness) ([1]; AA 105 Ala (BlaC I105A), relative to WT Ile): -0.022 | Fi AVG (average fitness) ([1]; AA 105 Arg (BlaC I105R), relative to WT Ile): -0.000687 | Fi AVG (average fitness) ([1]; AA 105 Asn (BlaC I105N), relative to WT Ile): 0.167 | Fi AVG (average fitness) ([1]; AA 105 Asp (BlaC I105D), relative to WT Ile): -0.060 | Fi AVG (average fitness) ([1]; AA 105 Cys (BlaC I105C), relative to WT Ile): -0.004 | Fi AVG (average fitness) ([1]; AA 105 Gln (BlaC I105Q), relative to WT Ile): 0.070 | Fi AVG (average fitness) ([1]; AA 105 Glu (BlaC I105E), relative to WT Ile): 0.009 | Fi AVG (average fitness) ([1]; AA 105 Gly (BlaC I105G), relative to WT Ile): 0.023 | Fi AVG (average fitness) ([1]; AA 105 His (BlaC I105H), relative to WT Ile): 0.133 | Fi AVG (average fitness) ([1]; AA 105 Ile (BlaC WT, reference)): 0.000 | Fi AVG (average fitness) ([1]; AA 105 Leu (BlaC I105L), relative to WT Ile): 0.101 | Fi AVG (average fitness) ([1]; AA 105 Lys (BlaC I105K), relative to WT Ile): 0.043 | Fi AVG (average fitness) ([1]; AA 105 Met (BlaC I105M), relative to WT Ile): -0.015 | Fi AVG (average fitness) ([1]; AA 105 Phe (BlaC I105F), relative to WT Ile): 0.205 | Fi AVG (average fitness) ([1]; AA 105 Pro (BlaC I105P), relative to WT Ile): 0.056 | Fi AVG (average fitness) ([1]; AA 105 Ser (BlaC I105S), relative to WT Ile): 0.083 | Fi AVG (average fitness) ([1]; AA 105 Thr (BlaC I105T), relative to WT Ile): 0.012 | Fi AVG (average fitness) ([1]; AA 105 Trp (BlaC I105W), relative to WT Ile): 0.218 | Fi AVG (average fitness) ([1]; AA 105 Tyr (BlaC I105Y), relative to WT Ile): 0.087 | Fi AVG (average fitness) ([1]; AA 105 Val (BlaC I105V), relative to WT Ile): 0.121 | WT abs Fi 1 ([1]; absolute fitness of BlaC WT (Ile 105), replicate 1): -0.251 | WT abs Fi 2 ([1]; absolute fitness of BlaC WT (Ile 105), replicate 2): 0.228 | WT abs Fi 3 ([1]; absolute fitness of BlaC WT (Ile 105), replicate 3): -0.183 | MIC of inhibitor [2]: 32 µg/mL | MIC of inhibitor [3]: 32 µg/mL | MIC of inhibitor [4]: 4 µg/mL | MIC of inhibitor [5]: 32 µg/mL
